According to US20230391786A1, “cGAS INHIBITORS” (Eli Lilly and Company, priority 2022, published 2023):
Structures can show the parent of a compound that is named as a salt.

What was measured:
[1] = tested on: cGAS activity in THP1 cells (IFNb as marker); assay: Cellular assay to measure cGAS activity (IFNb production in PMA-differentiated THP1 cells stimulated by RDG-Adenovirus-GFP); assay type: cell-based, human; conditions: Homo sapiens, THP-1, THP1 cells, PMA differentiated, RDG-Adenovirus-GFP 1000 MOI, IFNb AlphaLISA, overnight incubation; read-out: IC50 (μM), Cellular assay for Compounds 95-348
Summary of the method: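 The readout is secreted IFNb measured by AlphaLISA after overnight compound exposure. THP1 cells, differentiated with PMA for 24 h and rested overnight, were infected with RDG-Adenovirus-GFP (1000 MOI, 4 h) before compounds were added; IC50 came from a 4-parameter logistic fit of inhibition against log concentration.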

recombinant human cGAS = recombinant human cGAS (Homo sapiens (Human), UniProt Q8N884); assay: In vitro inhibition assay of cGAS activity (cGAMP production, RapidFire mass spectrometry); assay type: biochemical; conditions: 10 nM recombinant human cGAS, 60 nM 75-bp dsDNA, ATP, GTP, room temperature 3 hours, read-out: IC50 (μM), In vitro inhibition assay for Compounds 95-348
Summary of the method: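 Product cGAMP was quantified by RapidFire MS against a difluoro-cGAMP internal standard after a formic acid quench. The reaction contained 10 nM recombinant full-length human cGAS, 75-bp dsDNA (60 nM), ATP and GTP (50 μM) and ran for 3 h at room temperature. IC50 values came from 4-parameter nonlinear regression.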

Chain of recombinant human cGAS (Q8N884 whole entry): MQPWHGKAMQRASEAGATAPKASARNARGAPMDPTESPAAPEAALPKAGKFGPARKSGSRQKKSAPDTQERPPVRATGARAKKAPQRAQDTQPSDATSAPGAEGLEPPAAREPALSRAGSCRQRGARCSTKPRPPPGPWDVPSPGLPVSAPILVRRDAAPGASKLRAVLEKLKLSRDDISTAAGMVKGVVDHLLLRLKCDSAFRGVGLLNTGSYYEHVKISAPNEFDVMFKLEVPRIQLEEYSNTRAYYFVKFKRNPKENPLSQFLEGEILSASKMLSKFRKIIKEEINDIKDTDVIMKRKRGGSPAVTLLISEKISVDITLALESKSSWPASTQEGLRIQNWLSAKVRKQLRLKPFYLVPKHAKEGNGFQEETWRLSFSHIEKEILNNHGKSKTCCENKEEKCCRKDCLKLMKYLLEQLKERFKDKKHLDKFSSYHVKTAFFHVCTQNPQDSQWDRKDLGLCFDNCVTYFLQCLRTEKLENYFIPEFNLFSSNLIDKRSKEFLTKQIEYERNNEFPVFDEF

Compound | IC50 [1] [µM] | IC50 (recombinant human cGAS) [µM]
CC(=O)Nc1cc(Cl)c(Cl)c2[nH]c(CNC(=O)CO)c(-c3cn[nH]c3)c12 [Example 222, N-[[4-Acetamido-6,7-dichloro-3-(1H-pyrazol-4-yl)-1H-indol-2-yl]methyl]-2-hydroxy-acetamide] | > 10 | 0.0927
O=C(NCc1[nH]c2c(Cl)c(Cl)ccc2c1-c1cn[nH]c1)C1(O)COC1 [Example 223, N-[[6,7-Dichloro-3-(1H-pyrazol-4-yl)-1H-indol-2-yl]methyl]-3-hydroxy-oxetane-3-carboxamide] | 3.2 | 0.0812
O=C(NCc1[nH]c2c(Cl)c(Cl)ccc2c1-c1cn[nH]c1)C1COC1 [Example 224, N-[[6,7-Dichloro-3-(1H-pyrazol-4-yl)-1H-indol-2-yl]methyl]oxetane-3-carboxamide] | 2.73 | 0.0704
O=C(Nc1cc(Cl)c(Cl)c2[nH]c(CCO)c(-c3cn[nH]c3)c12)C(F)F [Example 225, N-[6,7-Dichloro-2-(2-hydroxyethyl)-3-(1H-pyrazol-4-yl)-1H-indol-4-yl]-2,2-difluoro-acetamide] | 0.23 | 0.0121
Clc1ccc2c(-c3cn[nH]c3)cn(-c3c[nH]nn3)c2c1 [Example 226, 6-Chloro-3-(1H-pyrazol-4-yl)-1-(1H-triazol-4-yl)indole] | 2.27 | 0.0563
NC(=O)Cn1cc(-n2cc(-c3cn[nH]c3)c3ccc(Cl)cc32)nn1 [Example 227, 2-[4-[6-Chloro-3-(1H-pyrazol-4-yl)indol-1-yl]triazol-1-yl]acetamide] | 1.6 | 0.0408
NCCn1cc(-n2cc(-c3cn[nH]c3)c3ccc(Cl)cc32)nn1 [Example 228, 2-[4-[6-Chloro-3-(1H-pyrazol-4-yl)indol-1-yl]triazol-1-yl] ethanamine formic acid salt] | 1.46 | 0.0493
Cn1cc(-n2cc(-c3cn[nH]c3)c3ccc(Cl)cc32)nn1 [Example 230, 6-Chloro-1-(1-methyltriazol-4-yl)-3-(1H-pyrazol-4-yl)indole] | 2.02 | 0.0693
CC(=S)Nc1cc(Cl)c(Cl)c2[nH]cc(-c3cn[nH]c3)c12 [Example 231, N-[6,7-Dichloro-3-(1H-pyrazol-4-yl)-1H-indol-4-yl]thioacetamide] | 1.01 | 0.0724
CC(=O)N[C@H]1CCn2c1c(-c1cn[nH]c1)c1c(OCC#N)cc(Cl)c(Cl)c12 [Example 232, (S)—N-(5,6-Dichloro-8-(cyanomethoxy)-9-(1H-pyrazol-4-yl)-2,3-dihydro-1H-pyrrolo[1,2-a]indol-1-yl)acetamide] | 0.668 | 0.00376
CCOc1cc(Cl)c(Cl)c2c1c(-c1cn[nH]c1)c1n2CC[C@@H]1NC(C)=O [Example 233, (S)—N-(5,6-Dichloro-8-ethoxy-9-(1H-pyrazol-4-yl)-2,3-dihydro-1H-pyrrolo[1,2-a]indol-1-yl)acetamide] | 1.13 | 0.0806
CC(=O)N[C@@H]1CCn2c1c(-c1cn[nH]c1)c1c(OCC#N)cc(Cl)c(Cl)c12 [Example 234, (R)—N-(5,6-Dichloro-8-(cyanomethoxy)-9-(1H-pyrazol-4-yl)-2,3-dihydro-1H-pyrrolo[1,2-a]indol-1-yl)acetamide] | 1.72 | 0.0249
CCOc1cc(Cl)c(Cl)c2c1c(-c1cn[nH]c1)c1n2CC[C@H]1NC(C)=O [Example 235, (R)—N-(5,6-Dichloro-8-ethoxy-9-(1H-pyrazol-4-yl)-2,3-dihydro-1H-pyrrolo[1,2-a]indol-1-yl)acetamide] | 2.05 | 0.019
CC(=O)NCC(=O)NC1CCn2c1c(-c1cn[nH]c1)c1ccc(Cl)c(Cl)c12 (stereo not shown) [Example 236, 2-Acetamido-N-(5,6-dichloro-9-(1H-pyrazol-4-yl)-2,3-dihydro-1H-pyrrolo[1,2-a]indol-1-yl)acetamide] | > 10 | 0.0331
O=C(CO)NC1CCn2c1c(-c1cn[nH]c1)c1ccc(Cl)c(Cl)c12 (stereo not shown) [Example 237, N-(5,6-Dichloro-9-(1H-pyrazol-4-yl)-2,3-dihydro-1H-pyrrolo[1,2-a]indol-1-yl)-2-hydroxyacetamide] | 1.74 | 0.015
CS(=O)(=O)NC1CCn2c1c(-c1cn[nH]c1)c1ccc(Cl)c(Cl)c12 (stereo not shown) [Example 238, N-(5,6-Dichloro-9-(1H-pyrazol-4-yl)-2,3-dihydro-1H-pyrrolo[1,2-a]indol-1-yl)methanesulfonamide] | > 10 | 0.046
CCC(=O)NC1CCn2c1c(-c1cn[nH]c1)c1ccc(Cl)c(Cl)c12 (stereo not shown) [Example 239, N-(5,6-Dichloro-9-(1H-pyrazol-4-yl)-2,3-dihydro-1H-pyrrolo[1,2-a]indol-1-yl)propionamide] | > 10 | 0.0613
COCCC(=O)NC1CCn2c1c(-c1cn[nH]c1)c1ccc(Cl)c(Cl)c12 (stereo not shown) [Example 240, N-(5,6-Dichloro-9-(1H-pyrazol-4-yl)-2,3-dihydro-1H-pyrrolo[1,2-a]indol-1-yl)-3-methoxypropanamide] | > 10 | 0.0642
CC(=O)N[C@H]1Cc2c(-c3cn[nH]c3)c3c(NC(=O)C(F)F)cc(Cl)c(Cl)c3n2C1 [Example 244, (S)—N-(2-Acetamido-5,6-dichloro-9-(1H-pyrazol-4-yl)-2,3-dihydro-1H-pyrrolo[1,2-a]indol-8-yl)-2,2-difluoroacetamide] | 0.531 | 0.0099
CC(=O)N[C@H]1Cc2c(-c3cn[nH]c3)c3c(OCC#N)cc(Cl)c(Cl)c3n2C1 [Example 245, (S)—N-(5,6-Dichloro-8-(cyanomethoxy)-9-(1H-pyrazol-4-yl)-2,3-dihydro-1H-pyrrolo[1,2-a]indol-2-yl)acetamide] | 0.872 | 0.0122
CS(=O)(=O)NC1Cc2c(-c3cn[nH]c3)c3ccc(Cl)c(Cl)c3n2C1 (stereo not shown) [Example 246, N-(5,6-Dichloro-9-(1H-pyrazol-4-yl)-2,3-dihydro-1H-pyrrolo[1,2-a]indol-2-yl)methanesulfonamide] | 9.23 | 0.0313
N#CCOc1cc(Cl)c(Cl)c2[nH]nc(-c3cn[nH]c3)c12 [Example 249, 2-[[6,7-Dichloro-3-(1H-pyrazol-4-yl)-1H-indazol-4-yl]oxy]acetonitrile] | 2.32 | 0.0306
OCCCNc1cc(Cl)c(Cl)c2[nH]nc(-c3cn[nH]c3)c12 [Example 250, 3-[[6,7-Dichloro-3-(1H-pyrazol-4-yl)-1H-indazol-4-yl]amino]propan-1-ol] | 0.376 | 0.0052
CCN1CCn2c(c(-c3cn[nH]c3)c3c(NC(=O)C(F)F)cc(Cl)c(Cl)c32)C1=O [Example 251, N-[6,7-Dichloro-2-ethyl-1-oxo-10-(1H-pyrazol-4-yl)-3,4-dihydropyrazino[1,2-a]indol-9-yl]-2,2-difluoro-acetamide] | 1.36 | 0.0265
COCCN1CCn2c(c(-c3cn[nH]c3)c3c(NC(=O)C(F)F)cc(Cl)c(Cl)c32)C1=O [Example 252, N-[6,7-Dichloro-2-(2-methoxyethyl)-1-oxo-10-(1H-pyrazol-4-yl)-3,4-dihydropyrazino[1,2-a]indol-9-yl]-2,2-difluoro-acetamide] | 0.726 | 0.033
CC(=O)N1CCn2c(c(-c3cn[nH]c3)c3c(NCCCO)cc(Cl)c(Cl)c32)C1 [Example 253, 1-[6,7-Dichloro-9-(3-hydroxypropylamino)-10-(1H-pyrazol-4-yl)-3,4-dihydro-1H-pyrazino[1,2-a]indol-2-yl]ethanone] | 0.509 | 0.014
